Measurements published in patent US10485880B2, “Antibody-drug conjugates (ADCs) of KSP inhibitors with aglycosylated anti-TWEAKR antibodies” (Bayer Pharma Aktiengesellschaft, priority 2015, dated 2019).
Values belong to the molecule of their own block, whether it stands above or below them.

Columns and labels:
[1] = system: NCI-H292 cells; assay: Cytotoxicity of metabolites, MTT assay, NCI-H292; type: cell-based, human
Procedure: NCI-H292: human mucoepidermoid lung carcinoma cells, ATCC-CRL-1848, standard medium: RPMI 1640 (Biochrom; #FG1215, stab. glutamine)+10% FCS (Biochrom; #S0415), TWEAKR-positive, EGFR-positive.
The cells were cultivated according to the standard method using the growth media listed under C-1. The test is carried out by detaching the cells with a solution of Accutase in PBS (Biochrom AG #L2143), pelleting, resuspending in culture medium, counting and sowing into a 96-well culture plate with white bottom (Costar #3610) (NCI H292: 2500 cells/well, KPL-4: 1200 cells/well, LoVo: 1000 cells/well in a total volume of 100 μl). The cells were then incubated in an incubator at 37° C. and 5% carbon dioxide. After 48 h, the medium was replaced. The metabolites in 10 μl of culture medium in concentrations from 10^−5M to 10^−13M were then pipetted to the cells (in triplicate), and the assay was then incubated in an incubator at 37° C. and 5% carbon dioxide. […] To this end, the MTT reagent was incubated with the cells for 4 h, followed by lysis of the cells overnight by addition of the detergent. The dye formed was detected at 570 nm (Infinite M1000 pro, Tecan). The measured data were used to calculate the IC50 of the growth inhibition using the DRC (dose response curve). […]

[2] = molecular target: T1, TWEAKR (Homo sapiens, UniProt Q9NP84); assay: Agonistic activity of anti-TWEAKR antibodies; type: cell-based
T1 construct: endogenous in cells; host or cells: HT29 (also WiDr, A253, NCI-H322, 786-O)
T1 sequence (Q9NP84 28-129): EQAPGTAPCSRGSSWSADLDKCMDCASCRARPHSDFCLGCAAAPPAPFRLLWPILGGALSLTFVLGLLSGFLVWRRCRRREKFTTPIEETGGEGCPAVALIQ
Source text: In this regard, one embodiment of the invention is the provision of antibodies or antigen-binding antibody fragments thereof binding specifically to a TWEAKR at a new epitope, distinguished by selective binding to aspartate (D) at position 47 (D47) of TWEAKR (SEQ ID NO: 169; see also FIG. 1). The identified dependencies of certain TWEAKR amino acids for antibody interaction correlate with the agonistic activity determined for these antibodies. […] Thus, TWEAK binds to a similar, but distinguishable binding site (FIG. 7). Accordingly, the antibodies of the present invention, which show strong agonistic activity, bind to a new epitope (as a function of D47) which is associated with very strong agonistic activity.

Molecule: CC(C)(C)[C@H](c1cc(-c2cc(F)ccc2F)cn1Cc1ccccc1)N(CCCN)C(=O)CO [Example M9, N-(3-Aminopropyl)-N-{(1R)-1-[1-benzyl-4-(2,5-difluorophenyl)-1H-pyrrol-2-yl]-2,2-dimethylpropyl}-2-hydroxyacetamide]
IC50 ([1]; Homo sapiens, NCI-H292, 96 h incubation): 0.000924 µM

Molecule: CC(C)(C)[C@H](c1cc(-c2cc(F)ccc2F)cn1Cc1ccccc1)N(CC[C@H](N)C(=O)NCCNC(=O)CNC(=O)CC(SC[C@H](N)C(=O)O)C(=O)O)C(=O)CO (stereo partly drawn) [Example M2-1, 4-[(2-{[2-({(2S)-2-Amino-4-[{(1R)-1-[1-benzyl-4-(2,5-difluorophenyl)-1H-pyrrol-2-yl]-2,2-dimethylpropyl}(glycoloyl)amino]butanoyl}amino)ethyl]amino}-2-oxoethyl)amino]-2-{[(2R)-2-amino-2-carboxyethyl]sulphanyl}-4-oxobutanoic acid/trifluoroacetic acid (1:1)]
IC50 ([1]; 96 h incubation): 0.265 µM

Agonistic activity [2]: moderate agonistic activity
B1: PLD-192: "PLD-192 shows moderate agonistic activity and binds as a function of R56 to the cysteine-rich domain, but opposite of the TWEAK ligand site" (antibody, chains of the INN, looked up, V domains shown)
VH: EVQLVESGGGLVQPGGSLRLSCAASGFTFSSYWMSWVRQAPGKGLEWVAEIRLKSDNYATHYAESVKGRFTISRDDSKNSLYLQMNSLRAEDTAVYYCTGYYADAMDYWGQGTLVTVSS
VL: DIQMTQSPSSLSASVGDRVTITCRASQSVSTSSYSYMHWYQQKPGKAPKLLIKYASNLESGVPSRFSGSGSGTDFTLTISSLQPEDFATYYCQHSWEIPYTFGGGTKVEIK
